Experimental data published in patent publication US20220041583A1, “IMMUNOMODULATORS, COMPOSITIONS AND METHODS THERE OF” (BETTA PHARMACEUTICALS CO., LTD, priority 2018, published 2022).

Key:
Pharmacokinetic Assay = type: in vivo; settings: rat; male rats, single oral (intragastric) dose 25 mg/kg, plasma
Description: Healthy adult male rats were subjected to single-dose of the test compounds with 10% DMSO, 10% Kolliphor® HS 15 and 80% Saline as excipients, and the rats were giving oral administration (intragastric administration) with the compounds at a dose of 25 mg/kg, Before the experiment, the animals were fasted overnight, and the fasting time last from 12 hrs prior to the administration to 4 hrs after the administration. Time of blood collection: 15 min, 30 min, 1 h, 2 h, 4 h, 7 h, 24 h. Approximately 0.3 mL of whole blood was collected from retro-orbital venous sinus, and placed into tubes that contained EDTA as an anticoagulant. The samples were centrifuged at 4° C. and 4000 rpm for 5 min. The plasma was transferred into centrifuge tubes, and stored at −20° C. till being analyzed. Concentrations of test compounds in the plasma samples were analyzed with liquid chromatography-tandem mass spectrometry (LC-MS/MS). Plasma concentration-time data of individual animals was analyzed using WinNonlin (version 4.1; Pharsight) software. Non-compartmental model was introduced in concentration analysis. The pharmacokinetic parameters of the test compounds were calculated.

PD-1/PD-L1 = target: T1, PD-1/PD-L1 (Homo sapiens, UniProt Q9NZQ7); test: PD-1/PD-L1 homogenous time-resolved fluorescence (HTRF) binding assay
T1 construct: Recombinant human PD-L1 protein (19-238) with a His-tag at the C-terminus; purchased AcroBiosystems PD1-H5229 (PD-L1); PD1-H5257 (PD-1)
T1 sequence (Q9NZQ7 19-238): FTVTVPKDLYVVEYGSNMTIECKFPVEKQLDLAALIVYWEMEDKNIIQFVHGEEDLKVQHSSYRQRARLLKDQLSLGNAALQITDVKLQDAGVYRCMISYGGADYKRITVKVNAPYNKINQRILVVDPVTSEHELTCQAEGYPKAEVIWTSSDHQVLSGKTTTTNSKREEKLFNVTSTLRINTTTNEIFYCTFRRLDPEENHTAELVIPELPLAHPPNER
Description: Resolved Fluorescence (HTRF) Binding Assay
The assays were conducted in a standard black 384-well polystyrene plate with a final volume of 20 μL. Inhibitors were first serially diluted in DMSO and then added to the plate wells before the addition of other reaction components. The final concentration of DMSO in the assay was 1%. The assays were carried out at 25° C. in the PBS buffer (pH 7.4) with 0.05% Tween-20 and 0.1% BSA. Recombinant human PD-L1 protein (19-238) with a His-tag at the C-terminus was purchased from AcroBiosy stems (PD1-H5229). Recombinant human PD-1 protein (25-167) with Fc tag at the C-terminus was also purchased from AcroBiosystems (PD1-H5257). PD-L1 and PD-1 proteins were diluted in the assay buffer and 10 μL was added to the plate well. Plates were centrifuged and proteins were preincubated with inhibitors for 40 min. The incubation was followed by the addition of 10 μL of HTRF detection buffer supplemented with Europium cryptate-labeled anti-human IgG (PerkinElmer-AD0212) specific for Fc and anti-His antibody conjugated to SureLight®-Allophycocyanin (APC, PerkinElmer-AD0059H). After centrifugation, the plate was incubated at 25° C. for 60 min. Before reading on a PHERAstar FS plate reader (665 nm/620 nm ratio). Final concentrations in the assay were […] PD1, 10 nM PD-L1, 1 nM europium anti-human IgG and 20 nM anti-His-Allophycocyanin. IC50 determination was performed by fitting the curve of percent control activity versus the log of the inhibitor concentration using the GraphPad Prism 5.0 software.

| Structure (SMILES) | AUC (Pharmacokinetic Assay) [µg·h/mL] | Cmax (Pharmacokinetic Assay) [ng/mL] | Tmax (Pharmacokinetic Assay) [h] | half-life (Pharmacokinetic Assay) [h] | IC50 (PD-1/PD-L1; Table 6, class symbols) [nM] | IC50 (PD-1/PD-L1; Table 6, numeric values) [nM] |
| --- | --- | --- | --- | --- | --- | --- |
| COc1cc2oc(-c3cccc(-c4ccccc4)c3C)nc2cc1CNCCO [Com. EX. No. 2, 2-(((6-methoxy-2-(2-methyl-[1,1′-biphenyl]-3-yl)benzo[d]oxazol-5-yl)methyl)amino)ethan-1-ol, reference compound] | 5.15 | 329 | 4 | 14.4 | – | – |
| Cc1c(-c2ccccc2)cccc1-c1nc2cc(CN3CCC[C@H]3C(=O)O)c(OC(F)F)cc2o1 [Example 36, ((6-(difluoromethoxy)-2-(2-methyl-[1,1′-biphenyl]-3-yl)benzo[d]oxazol-5-yl)methyl)-L-proline] | 119 | 10200 | 0.5 | 9.3 | 0.1 to 10 | – |
| Cc1c(-c2ccccc2)cccc1-c1nc2cc(CN3CCC[C@H]3C(=O)O)c(C(F)(F)F)cc2o1 [Example 28, ((2-(2-methyl-[1,1′-biphenyl]-3-yl)-6-(trifluoromethyl)benzo[d]oxazol-5-yl)methyl)-L-proline] | 319 | 14400 | 0.3 | 41.2 | – | 1.4 |
| Cc1c(-c2ccccc2)cccc1-c1nc2cc(CN3CCOC[C@H]3C(=O)O)c(OC(F)F)cc2o1 [Example 39, (S)-4-((6-(difluoromethoxy)-2-(2-methyl-[1,1′-biphenyl]-3-yl)benzo[d]oxazol-5-yl)methyl)morpholine-3-carboxylic acid] | 121 | 31000 | 1 | 10.8 | – | 1.1 |
| Cc1cc2oc(-c3cccc(-c4ccccc4)c3C)nc2cc1CN1CCCC[C@H]1C(=O)O [Example 22, (S)-1-((6-methyl-2-(2-methyl-[1,1′-biphenyl]-3-yl)benzo[d]oxazol-5-yl)methyl)piperidine-2-carboxylic acid] | 151 | 10300 | 1 | 42.3 | – | 1.8 |
| Cc1c(-c2ccccc2)cccc1-c1nc2cc(CN3CCCC[C@H]3C(=O)O)c(OCC#N)cc2o1 [Com. EX. No. 1, 1-((6-(cyanomethoxy)-2-(2-methyl-[1,1′-biphenyl]-3-yl)benzo[d]oxazol-5-yl)methyl)piperidine-2-carboxylic acid, reference compound] | 5.84 | 881 | 0.5 | 3.42 | – | – |
| Cc1c(-c2ccccc2)cccc1-c1nc2cc(CN3CCC[C@H]3C(=O)O)c(Cl)cc2o1 [Example 20, ((6-chloro-2-(2-methyl-[1,1′-biphenyl]-3-yl)benzo[d]oxazol-5-yl)methyl)-L-proline] | 74.5 | 8270 | 1 | 7.52 | – | 1.8 |
| CSc1cc2oc(-c3cccc(-c4ccccc4)c3C)nc2cc1CN1CCCC[C@H]1C(=O)O [Example 1, (S)-1-((2-(2-methyl-[1,1′-biphenyl]-3-yl)-6-(methylthio)benzo[d]oxazol-5-yl)methyl)piperidine-2-carboxylic acid] | – | – | – | – | – | 1.9 |

Next, values leading:

| AUC (Pharmacokinetic Assay) [µg·h/mL] | Cmax (Pharmacokinetic Assay) [ng/mL] | Tmax (Pharmacokinetic Assay) [h] | half-life (Pharmacokinetic Assay) [h] | IC50 (PD-1/PD-L1; Table 6, class symbols) [nM] | IC50 (PD-1/PD-L1; Table 6, numeric values) [nM] | Structure (SMILES) |
| --- | --- | --- | --- | --- | --- | --- |
| 201 | 23300 | 1 | 4.27 | 0.1 to 10 | – | Cc1c(-c2ccccc2)cccc1-c1nc2cc(CN3CCCC[C@H]3C(=O)O)c(OC(F)F)cc2o1 [Example 29, (S)-1-((6-(difluoromethoxy)-2-(2-methyl-[1,1′-biphenyl]-3-yl)benzo[d]oxazol-5-yl)methyl)piperidine-2-carboxylic acid] |
| 246 | 20700 | 2 | 7.72 | 10 to 100 | – | Cc1c(-c2nc3cc(CN4CCC[C@H]4C(=O)O)c(OC(F)F)cc3o2)cccc1-c1ccccc1F [Example 52, ((6-(difluoromethoxy)-2-(2′-fluoro-2-methyl-[1,1′-biphenyl]-3-yl)benzo[d]oxazol-5-yl)methyl)-L-proline] |
| 125 | 12200 | 1 | 17.7 | 0.1 to 10 | – | CSc1cc2oc(-c3cccc(-c4ccccc4)c3C)nc2cc1CN1CCC[C@H]1C(=O)O [Example 2, ((2-(2-methyl-[1,1′-biphenyl]-3-yl)-6-(methylthio)benzo[d]oxazol-5-yl)methyl)-L-proline] |
